From patent US10508113B2, “Inhibitors of tyrosine kinase 2 mediated signaling” (AbbVie Inc., priority 2018, dated 2019)
pEC50: −log10 of the molar value.

Biological target: T1, Tyk2/Jak2 (Homo sapiens, UniProt P29597)
T1 construct: Cell Type: Frozen primary phytohemagglutinin (PHA) T-Blasts; endogenous in cells; host or cells: primary PHA T-blasts
Assay: Tyk2 (Tyk2/Jak2 PSTAT4 T-Blast) alpha screen assay: inhibition of IL-12 induced phosphorylation of STAT4 in T-blast cells
Format: cell-based
Conditions: IL-12 induced pSTAT4, T-blast cells
Method: 1. TYK2 (TYK2/JAK2 PSTAT4 T-BLAST) ALPHA SCREEN ASSAY
IL-12 is known to transduce its signal through IL-12 receptor via Jak2 and/or Tyk2. For that reason, the activity against Tyk2/Jak2 was measured by determining the inhibition of IL-12 induced phosphorylation of STAT4 in T-blast cells. […] See, e.g., Sohn et al., J. Immunology (2013) 2205-2216.
Cell Type: Frozen primary phytohemagglutinin (PHA) T-Blasts; Culture Medium: Roswell Park Memorial Institute (RPMI) 1640 Medium, 10% heat-inactivated fetal bovine serum (FBS), 1% penicillin/streptomycin (Pen-Strep), 10 mM hydroxyethyl piperazineethanesulfonic acid (HEPES), 10 ng/mL recombinant human interleukin-12 (rhIL-12); Assay Medium: Hank's Balanced Salt Solution (HBSS), no phenol red.
i. Automated 11-point 1:3 dilution curve: 2.5 mM top concentration dispensed in column 1 of a Corning 96-well polypropylene plate. Dimethyl sulfoxide (DMSO) was added to column 12 for high and low controls. Compounds were serially diluted 1:3 by adding 20 uL stock to 40 μL DMSO across the plate via Hamilton Microlab Star instrument.
ii. Media dilution of compounds: Serially diluted compounds were diluted 1:50 in assay medium by adding 4 μL compound to 196 μL assay medium in a Corning 96-well polypropylene plate (now 2% DMSO).
iii. […]
Primary T-Blasts from overnight culture were centrifuged, washed once in assay medium, and pelleted. T-Blasts were counted and resuspended at 12,500,000 cells/mL. […]
Phosphorylated Signal Transducer and Activator of Transcription 4 (pSTAT4) was quantified using the PerkinElmer SureFire Ultra pSTAT4 (Tyrosine 693) Assay. […]
Make master mix of Protein A donor beads using the following volumes per well: 5.88 μL Dilution Buffer and 0.12 μL […]. […] Read plate on Perkin Elmer Envision. […]
Certain compounds listed in Table C were tested for Tyk2 activity following the aforementioned Tyk2 (Tyk2/Jak2 PSTAT4 T-Blast) alpha screen assay and Jak2 (PTATS UT7) alpha screen assay. […] Selectivity for Tyk2 over Jak1, and Tyk2 over Jak2, are calculated from the tabulated activity data.

T1 sequence (P29597 whole entry, other chains not shown): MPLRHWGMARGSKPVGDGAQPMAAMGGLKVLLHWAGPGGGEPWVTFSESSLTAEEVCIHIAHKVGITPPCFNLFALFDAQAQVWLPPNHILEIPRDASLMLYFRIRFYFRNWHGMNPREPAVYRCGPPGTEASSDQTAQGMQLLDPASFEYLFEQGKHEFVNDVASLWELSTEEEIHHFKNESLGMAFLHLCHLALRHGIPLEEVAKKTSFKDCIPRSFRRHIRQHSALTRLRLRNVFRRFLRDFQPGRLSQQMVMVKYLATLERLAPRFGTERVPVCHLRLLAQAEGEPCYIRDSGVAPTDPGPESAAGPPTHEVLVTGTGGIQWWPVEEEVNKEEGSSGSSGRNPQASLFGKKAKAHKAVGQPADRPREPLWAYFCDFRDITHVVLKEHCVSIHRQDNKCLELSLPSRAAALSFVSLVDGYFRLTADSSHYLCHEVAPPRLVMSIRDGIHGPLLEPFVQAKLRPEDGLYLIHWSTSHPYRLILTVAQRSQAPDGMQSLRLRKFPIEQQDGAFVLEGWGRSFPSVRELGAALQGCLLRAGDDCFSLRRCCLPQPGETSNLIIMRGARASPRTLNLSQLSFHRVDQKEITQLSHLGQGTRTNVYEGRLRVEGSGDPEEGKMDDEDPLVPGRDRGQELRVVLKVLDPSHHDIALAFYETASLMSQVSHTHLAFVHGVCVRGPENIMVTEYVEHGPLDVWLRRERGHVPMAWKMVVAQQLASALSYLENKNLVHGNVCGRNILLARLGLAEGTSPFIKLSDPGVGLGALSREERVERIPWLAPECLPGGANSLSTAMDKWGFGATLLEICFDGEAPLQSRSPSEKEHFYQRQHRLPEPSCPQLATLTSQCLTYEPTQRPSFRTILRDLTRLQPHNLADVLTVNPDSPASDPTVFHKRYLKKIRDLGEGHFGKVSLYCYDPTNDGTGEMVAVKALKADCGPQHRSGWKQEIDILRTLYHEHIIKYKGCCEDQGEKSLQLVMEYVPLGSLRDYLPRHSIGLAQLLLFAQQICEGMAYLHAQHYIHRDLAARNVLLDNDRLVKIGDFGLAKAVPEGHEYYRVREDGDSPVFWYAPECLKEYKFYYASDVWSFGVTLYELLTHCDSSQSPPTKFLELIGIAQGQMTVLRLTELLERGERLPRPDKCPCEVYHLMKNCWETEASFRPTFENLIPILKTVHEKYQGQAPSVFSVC

pEC50 | SMILES
6.95 | COCc1cc(-c2cn(C)c3cnc(NC(C)=O)cc23)nc([C@]2([C@@H](C)O)CCOC2)c1 [Example 22.4, N-(3-(6-((R)-3-((R)-1-hydroxyethyl)tetrahydrofuran-3-yl)-4-(methoxymethyl)pyridin-2-yl)-1-methyl-1H-pyrrolo[2,3-c]pyridin-5-yl)acetamide]
6.83 | COCc1cc(-c2cn(C)c3cnc(NC(C)=O)cc23)nc([C@]2([C@H](C)O)CCOC2)c1 [Example 22.3, N-(3-(6-((R)-3-((S)-1-hydroxyethyl)tetrahydrofuran-3-yl)-4-(methoxymethyl)pyridin-2-yl)-1-methyl-1H-pyrrolo[2,3-c]pyridin-5-yl)acetamide]
